This note sets out measurements from patent US8323669B2, “Polymer conjugate of taxane” (priority 2006, dated 2012).

Common to all, as to format: in vivo, mouse (female CDF1 mice)
The subject of experiment [1] is Mouse colon cancer, Colon26. In words: Antitumor effect of compounds 2 and 3 (Test Example 4). The following applies: single i.v. at maximum tolerance dose (conjugates 200 mg/kg as DTX, DTX 100 mg/kg). The text has this:
Mouse colon cancer, Colon26, maintained by serial subcutaneous subculture in mice was minced into about 2-mm square fragments, and the fragments were subcutaneously transplanted on the dorsal part of female CDF1 mice with a trocar. Seven days after tumor transplantation, the polymer conjugates of the present invention (compound 2 and compound 3) and the control drug (docetaxel, DTX) were each intravenously administered once to the mouse tail vein at the respective maximum tolerance dose. The compound 2 and compound 3 were dissolved in 5% glucose solution for injection to a level for the use at a dose of 200 mg/kg as DTX. DTX to be used was prepared by dissolving a commercially available Taxotere injection (for 100 mg/kg use) in a vehicle solution attached to the product, and diluting it with physiological saline at the time of use. After the administration, the major axis (L mm) and minor axis (W mm) of the tumor were measured using a caliper, and the tumor volume was calculated by the formula: (L×W^2)/2.

Experiment [2] deals with Mouse colon cancer, Colon26. In words: Antitumor effect of compound 4 (Test Example 5). The following applies: single i.v. at maximum tolerance dose (compound 4 200 mg/kg as DTX, DTX 100 mg/kg). As to the method: Mouse colon cancer, Colon26, maintained by serial subcutaneous subculture in mice was minced into about 2-mm square fragments, and these fragments were subcutaneously transplanted on the dorsal part of female CDF1 mice with a trocar. Seven days after tumor transplantation, the polymer conjugate of the present invention (compound 4) or the control drug (docetaxel, DTX) was intravenously administered once to the mouse tail vein at the maximum tolerance dose. The compound 4 was dissolved in a 5% glucose solution for injection at a level for the use at a dose of 200 mg/kg as DTX. DTX to be used was prepared by dissolving a commercially available Taxotere injection (for the use at a dose of 100 mg/kg use) with a vehicle solution attached to the product and diluting it with physiological saline at the time of use. After the administration, the major axis (L mm) and minor axis (W mm) of the tumor were measured using a caliper, and the tumor volume was calculated by the formula: (L×W^2)/2.

For experiment [3], the system named is Mouse colon cancer, Colon26. Kind of experiment: Antitumor effect of compound 1 (Test Example 3). The following applies: i.v. three times (Day 0, 4, 8), 200 mg/kg as PTX. As to the method: Mouse colon cancer, Colon26, maintained by serial subcutaneous subculture in mice was minced into about 2-mm square fragments, and the fragments were subcutaneously transplanted on the dorsal part of female CDF1 mice with a trocar. Seven days after tumor transplantation, the polymer conjugate of the present invention (compound 1) or the control drug (paclitaxel, PTX) was administered intravenously to the mouse tail vein three times at an interval of 4 days (Day 0, Day 4 and Day 8 in Table 1) at a dose of 200 mg/kg as PTX. The compound 1 was dissolved in a 5% glucose solution for injection and used. PTX was dissolved in anhydrous ethanol and cremophor (manufactured by Sigma Co., Ltd) and diluted with physiological saline at the time of use. After the administration, the major axis (L mm) and minor axis (W mm) of the tumor were measured using a caliper, and the volume of the tumor was calculated by the formula: (L×W^2)/2.

Structures are written as SMILES.

In the case of `CC(=O)O[C@@]12CO[C@@H]1C[C@H](O)[C@@]1(C)C(=O)[C@H](O)C3=C(C)[C@@H](OC(=O)[C@H](O)[C@@H](NC(=O)OC(C)(C)C)c4ccccc4)C[C@@](O)([C@@H](OC(=O)c4ccccc4)[C@H]21)C3(C)C` [DTX, docetaxel], the relative tumor volume in experiment [1] (Day 0 after administration) came to 1.00; in experiment [1] (Day 2 after administration), 1.61; in experiment [1] (Day 4 after administration), 1.57; in experiment [1] (Day 7 after administration), 2.30; in experiment [1] (Day 10 after administration), 5.85; in experiment [2] (Day 0 after administration), 1.00. For the same molecule, the relative tumor volume in experiment [2] (Day 3 after administration) is reported as 1.17; in experiment [2] (Day 5 after administration), 1.17; in experiment [2] (Day 7 after administration), 2.17; in experiment [2] (Day 10 after administration), 5.75.
On to `CC(=O)O[C@H]1C(=O)[C@@]2(C)[C@H]([C@H](OC(=O)c3ccccc3)[C@]3(O)C[C@H](OC(=O)[C@H](O)[C@@H](NC(=O)c4ccccc4)c4ccccc4)C(C)=C1C3(C)C)[C@]1(OC(C)=O)CO[C@@H]1C[C@@H]2O` [Paclitaxel, paclitaxel], for which the relative tumor volume in experiment [3] (Day 0 after administration initiation) amounted to 1; in experiment [3] (Day 4 after administration initiation), 3.28; in experiment [3] (Day 8 after administration initiation), 4.75; in experiment [3] (Day 11 after administration initiation), 4.07.
